Test results published in US20230150980A1, “COLLAGEN 1 TRANSLATION INHIBITORS AND METHODS OF USE THEREOF” (Anima Biotech Inc., priority 2020, published 2023).
Where a name gives a salt, the structure may show the parent alone.

System: collagen 1
Assay: WI-38 collagen 1 inhibition assay (anti-Collagen I immunofluorescence);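 further: minus sign means inactive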
Format: cell-based
Conditions: cellular EC50, WI-38 human lung fibroblasts, values are LogEC50 classes
Protocol: WI-38 cells (ATCC® CCL-75™) were maintained in MEM EAGLE (NEAA) W. GLUTAMIN (Biological Industries, Cat. 06-1040-15-1A) containing 10% fetal bovine serum (FBS) and 1% Penicillin-Streptomycin Solution. To synchronize the cells (cell cycle synchronization) prior to induction of collagen synthesis, the cells were starved using DMEM-low glucose supplemented with 0.25% FBS for two hours and then without FBS for 24 hours. To induce collagen synthesis, the cells were treated with a collagen induction cocktail for the indicated time. Compounds were added with induction.
Cells in 96-well or 384-well plates were fixed for 20 min in 4% paraformaldehyde (PFA, ENCO, Cat. sc-281692). Following two washes with 1×PBS, cells were treated with hydrogen peroxide (Acros, Cat: 7722-84-1) for 10 minutes and then washed twice with 1×PBS. Cells were then incubated over-night at 4° C. with Anti-Collagen I (Sigma-Aldrich, Cat: C 2456) antibody and washed three times with 1×PBS. Cell were then incubated with a suitable secondary fluorescently-tagged antibody and nuclei stained with DAPI, for 1 hour, and then washed 3 times with 1×PBS.
Cell images were taken with Operetta (Perkin Elmer, USA), a wide-field fluorescence microscope at 20× magnification. After acquisition, the images were transferred to Columbus software (Perkin-Elmer) for image analysis. In Columbus, cells were identified by their nucleus, using the “Find Nuceli” module and cytoplasm was detected based on the secondary antibody channel. Subsequently, the fluorescent signal was enumerated in the identified cell region. Data was exported to a data analysis and visualization software, Tibco Spotfire, USA.

Clc1ccc2[nH]c(CN3CCN(c4ccncc4)CC3)cc2c1 [compound 245, 5-chloro-2-[[4-(4-pyridyl)piperazin-1-yl]methyl]-1H-indole formate]
COL1 Efficacy (LogEC50): −

Nc1ccc2[nH]c(CN3CCN(c4ccncc4)CC3)cc2c1 [compound 246, 2-[[4-(4-pyridyl)piperazin-1-yl]methyl]-1H-indol-5-amine]
COL1 Efficacy (LogEC50): ++ (++: −5 to −6)

Clc1cccc2cc(CN3CCN(c4ccncc4)CC3)[nH]c12 [compound 247, 7-chloro-2-[[4-(4-pyridyl)piperazin-1-yl]methyl]-1H-indole]
COL1 Efficacy (LogEC50): +++ (+++: <−6)

Clc1c(CN2CCN(c3ccncc3)CC2)[nH]c2ccccc12 [compound 248, 3-chloro-2-[[4-(4-pyridyl)piperazin-1-yl]methyl]-1H-indole]
COL1 Efficacy (LogEC50): +++ (+++: <−6)

O=C(Nc1ccc2[nH]c(CN3CCN(c4ccncc4)CC3)cc2c1)c1ccccc1 [compound 249, N-[2-[[4-(4-pyridyl)piperazin-1-yl]methyl]-1H-indol-5-yl]benzamide]
COL1 Efficacy (LogEC50): +++ (+++: <−6)

O=C(Nc1ccccc1)c1ccc2[nH]c(CN3CCN(c4ccncc4)CC3)cc2c1 [compound 250, N-phenyl-2-[[4-(4-pyridyl)piperazin-1-yl]methyl]-1H-indole-5-carboxamide]
COL1 Efficacy (LogEC50): + (+: >−5)

CS(=O)(=O)Nc1ccc2[nH]c(CN3CCN(c4ccncc4)CC3)cc2c1 [compound 251, N-[2-[[4-(4-pyridyl)piperazin-1-yl]methyl]-1H-indol-5-yl]methanesulfonamide]
COL1 Efficacy (LogEC50): + (+: >−5)

Cc1ccc2[nH]c(CN3CCN(c4ccncc4)CC3)cc2c1 [compound 252, 5-methyl-2-[[4-(4-pyridyl)piperazin-1-yl]methyl]-1H-indole]
COL1 Efficacy (LogEC50): ++ (++: −5 to −6)

c1ccc2[nH]c(CN3CCN(c4ccncc4)CC3)nc2c1 [compound 253, 2-[[4-(4-pyridyl)piperazin-1-yl]methyl]-1H-benzimidazole]
COL1 Efficacy (LogEC50): ++ (++: −5 to −6)

Cc1ncnc(N2CCN(Cc3nc4ccccc4s3)CC2)c1C [compound 254, 2-[[4-(5,6-dimethylpyrimidin-4-yl)piperazin-1-yl]methyl]-1,3-benzothiazole]
COL1 Efficacy (LogEC50): +++ (+++: <−6)

FC(F)(F)c1ccc2cc(CN3CCN(c4ccncc4)CC3)[nH]c2c1 [compound 255, 2-[[4-(4-pyridyl)piperazin-1-yl]methyl]-6-(trifluoromethyl)-1H-indole]
COL1 Efficacy (LogEC50): +++ (+++: <−6)

N#Cc1ccc2[nH]c(CN3CCN(c4ccncc4)CC3)cc2c1 [compound 256, 2-[[4-(4-pyridyl)piperazin-1-yl]methyl]-1H-indole-5-carbonitrile]
COL1 Efficacy (LogEC50): +++ (+++: <−6)

Cc1ncnc(N2CCN(Cc3nc4ccccc4[nH]3)CC2)c1C [compound 257, 2-[[4-(5,6-dimethylpyrimidin-4-yl)piperazin-1-yl]methyl]-1H-benzimidazole]
COL1 Efficacy (LogEC50): ++ (++: −5 to −6)

CC(=O)Nc1ccc2[nH]c(CN3CCN(c4ccncc4)CC3)cc2c1 [compound 258, N-[2-[[4-(4-pyridyl)piperazin-1-yl]methyl]-1H-indol-5-yl]acetamide]
COL1 Efficacy (LogEC50): ++ (++: −5 to −6)

Cc1ncnc(N2CCN(Cc3nc4ccccc4o3)CC2)c1C [compound 259, 2-[[4-(5,6-dimethylpyrimidin-4-yl)piperazin-1-yl]methyl]-1,3-benzoxazole]
COL1 Efficacy (LogEC50): +++ (+++: <−6)

COCCOc1ccc2[nH]c(CN3CCN(c4ccncc4)CC3)cc2c1 [compound 260, 5-(2-methoxyethoxy)-2-[[4-(4-pyridyl)piperazin-1-yl]methyl]-1H-indole]
COL1 Efficacy (LogEC50): ++ (++: −5 to −6)

COCCOc1ccc2c(c1)cc(CN1CCN(c3ccncc3)CC1)n2CCOC [compound 261, 5-(2-methoxyethoxy)-1-(2-methoxyethyl)-2-((4-(pyridin-4-yl)piperazin-1-yl)methyl)-1H-indole]
COL1 Efficacy (LogEC50): −
